Test results: US4039674A, “3-(3-Methyl-2-octyl)-1-[4-(1-ho mopiperidine)butyryloxy]-6,6,9-trimethyl-7,8,9,10-tetrahydro-6H-dibenzo [b,d]pyran hydrochloride as an anticonvulsant agent” (Abbott Laboratories, priority 1976, dated 1977)
Entries after “also recorded” stand apart in the source; their conditions may differ. Counter-ions that a name gives are not always drawn. Like-named read-outs stand apart in the source and are kept apart here.

Columns and labels:
[1] = tested on: hind limb tonic extension seizure (supramaximal electroshock); test: Supramaximal electroshock seizures in rats (single oral dose); assay type: in vivo, male Long-Evans rats; conditions: for ED50: Rattus norvegicus, rats, single oral dose
Source text: In this test, male Long-Evans rats (170-190 grams) were orally administered the test drugs as a suspension in olive oil and Methocel 0.5% to 5 or 10 animals per dose. At one and four hours post drug administration each animal received an electroshock (150 milliamp for 0.2 seconds) through corneal electrodes to produce a hind limb tonic extension seizure. The animals were considered protected when the hind limb tonic extensor component was blocked.

[2] = tested on: all components of audiogenic seizures; test: Audiogenic seizure test in mice (complete seizure protection); assay type: in vivo, male O'Grady strain mice; conditions: single oral dose; for ED50: Mus musculus
Source text: (§1) In this test, male O'Grady strain mice (14-16 grams) especially bred for susceptibility to audiogenic seizures were used as subjects. The audiogenic seizure apparatus consisted of a wooden box enclosing a metal container with two doorbells attached to the upper section. The test consisted of administering the test drug orally as a suspension in 10% olive oil and 90% Methocel (0.5%) to ten animals per dose. […] The test drugs included the present compound, DMHP, DPH, Δ^9 -THC and Phenobarbital.
The animals, diluent, apparatus and experimental procedure described in Example 1 above were used for the present test in mice to determine the complete seizure protection of the various compounds. The compounds tested included the present compound, DMHP and Δ^9 -THC.

[3] = tested on: hind limb tonic extensor component of the audiogenic seizure; test: Audiogenic seizure in mice (tonic extensor component), single oral dose; assay type: in vivo, male O'Grady strain mice; conditions: for ED50: Mus musculus, po; for activity over time / time of peak effect: single oral dose, 1, 4 and 24 hours
Source text: as §1

[4] = tested on: hind limb tonic extension seizure (supramaximal electroshock); test: Supramaximal electroshock test in rats (5-day chronic administration); assay type: in vivo, male Long-Evans rats; conditions: for ED50: Rattus norvegicus, 5-day oral administration, fifth day, 4 hr post drug administration, read-out: ED50 4 hr (50% of animals protected from hind limb tonic extension)
[5] = tested on: hind limb tonic extensor component of the audiogenic seizure; test: Audiogenic seizure test in mice (5-day chronic administration); assay type: in vivo, male O'Grady strain mice; conditions: for ED50: Mus musculus, fifth day, 4 hr post drug administration, read-out: Five day chronic audiogenic seizure test ED50 4 hr; for ED50 / activity in abolishing hind limb tonic extensor component: mice, oral; for activity in abolishing hind limb tonic extensor component: five consecutive days
Source text: as §1
In this test, the animals, diluent and apparatus described in Example 1, above, were used. The experimental procedure consisted of administering the test drugs orally for four days at 0.5 mg./kg. for the present compound and DMHP, and 1.0 and 0.1 mg./kg., respectively, for DPH and phenobarbital. On the fifth day of testing a dose response study (N=10 animals per dose) was initiated to obtain the ED50 for each compound.

[6] = Side effects (sedation and irritability) on repeated medication; assay type: in vivo; conditions: within a few days of medication
[7] = 1 hr, read-out: 1 hr ED50 (50% of animals protected from hindlimb tonic extension)
[8] = 4 hr, read-out: 4 hr ED50 (50% of animals protected from hindlimb tonic extension)
[9] = 1 h, mice, single oral dose, 1 hr post drug administration, read-out: 1 hr ED50 (50% of animals protected from hindlimb tonic extension)
[10] = 4 h, mice, single oral dose, 4 hr post drug administration, read-out: 4 hr ED50 (50% of animals protected from hindlimb tonic extension)
[11] = 24 h, mice, single oral dose, 24 hr post drug administration, read-out: 24 hr ED50 (50% of animals protected from hindlimb tonic extension)
[12] = 5-day oral, 2.5 mg./kg. (present compound, DMHP), 30.0 mg./kg. (DPH)
[13] = 4 hr post drug administration, read-out: Complete seizure protection 4 hr ED50

SMILES | ED50 [1, 7] [mg/kg] | ED50 [1, 8] [mg/kg] | ED50 ([1]; 24 hr, read-out: 24 hr ED50) [mg/kg] | ED50 [3, 9] [mg/kg] | ED50 [3, 10] [mg/kg] | ED50 [3, 11] [mg/kg] | activity over time / time of peak effect ([3]; mice) | tolerance to anticonvulsant activity [4, 12] | ED50 [4] [mg/kg] | ED50 [2, 13] [mg/kg] | ED50 [5] [mg/kg] | activity in abolishing hind limb tonic extensor component [5] | also measured
CCCCCc1cc(O)c2c(c1)OC(C)(C)C1CCC(C)=CC21 (single isomer, unassigned) [Δ9-THC] | 53.3 | 40.6 | > 200 | 5 | 38.8 | > 100 | most active at the one hour period |  |  |  |  |  | ED50 ([2]; 1 h, one hour data, read-out: Complete seizure protection ED50 (one hour data)): 6.5 mg/kg
CCCCCC(C)C(C)c1cc(O)c2c(c1)OC(C)(C)C1=C2CC(C)CC1 (stereo not shown) [DMHP] | 4.6 | 7.5 | 66.8 | 6.7 | 2.9 | 15.1 | active over a prolonged period (24 hours) | slight tolerance | 26.7 | 6.7 | 1.6 |  | 
O=C1NC(=O)C(c2ccccc2)(c2ccccc2)N1 [DPH, diphenylhydantoin] | 23 | 62.2 | > 200 | 1.7 | 3.3 | 11 |  |  | 26.6 |  | < 0.5 |  | 
CCC1(c2ccccc2)C(=O)NC(=O)NC1=O [Phenobarbital] | 22 | 18 | > 40 | 1.9 | 0.3 | 6 | peak effect at four hours post drug administration |  |  |  | 0.1 | very active | 
CCCCCC(C)C(C)c1cc(OC(=O)CCCN2CCCCCC2)c2c(c1)OC(C)(C)C1=C2CC(C)CC1 (stereo not shown) [Present compound, 3-(3-methyl-2-octyl)-1-[4-(1-homopiperidine)butyryloxy]-6,6,9-trimethyl-7,8,9,10-tetrahydro-6H-dibenzo[b,d]pyran hydrochloride] | 60.6 | 7.4 | > 150 | 6.8 | 1.1 | 55.9 |  | slight tolerance | 37.2 | 7.8 | 0.7 | marked activity in abolishing the hind limb tonic extensor component | anti-convulsant activity ([1]; rat supramaximal electroshock test, hydrochloride): potent anti-convulsant activity; also recorded: marked activity in preventing the hind limb tonic extension feature of supramaximal electroshock; tolerance to anticonvulsant activity ([4]; daily higher doses such as 5.0 and 10.0 mg./kg.): increase in tolerance; antagonism of preconvulsive running [2]: preconvulsive running was not antagonized; ED50 ([3]; daily, general description, read-out: oral ED50 for blocking the tonic extensor component of audiogenic seizures): 1 to 2 mg/kg; 24 hr ED50 (50% of animals protected from hindlimb tonic extension) ([3]; mice, single oral dose, 24 hr post drug administration, hydrochloride, 1440 min): 55.5 mg/kg; anti-convulsant activity ([3]; mouse audiogenic seizure test, hydrochloride): marked activity in antagonizing the hind limb tonic extensor component; also recorded: potent anti-convulsant activity; tolerance to side effects of sedation and irritability [6]: marked tolerance develops to the side effects of sedation and irritability within a few days of medication; retention of anticonvulsant activity on repeated medication ([5]; audiogenic seizure test in mice): retained without any loss of the potency
